Legend:
Type in all cases: biochemical
[1] = molecular target: Zea mays EPSPS variant 868-H6 (A2R, A4W, A72Q, K84R, L98C, G102A, I208L, T279A, E302S, T361S, E391G, D402G, A416G, V438R, T441Q), SEQ ID NO:5 (Zea mays, UniProt O24566, A1R/A3W/A415G/A71Q/D401G/E301S/E390G/G101A/I207L/K83R/L97C/T278A/T360S/T440Q/V437R); assay: EPSPS substrate saturation kinetics, 868-H6
Procedure: EPSPS activity was determined by quantifying the phosphate generated from the EPSPS reaction. Release of inorganic phosphate was coupled to reaction with 2-amino-6-mercapto-7-methylpurine ribonucleoside, catalyzed by purine-nucleoside phosphorylase (M R Webb, Proc. Natl. Acad. Sci. 89:4884-4887, 1992). The absorbance change that occurs was monitored at 360 nm, where the extinction is 11,200 M^−1 cm^−1, with a Spectramax plate reader (Molecular Devices). To determine kinetic parameters, the varied substrate was present at seven concentrations (the eighth being the blank, containing no substrate) ranging from 4 to 400 uM and the unvaried substrate present at saturation. […] Reactions were monitored with a Spectramax plate reader. […] KI was then calculated from the following form of the Michaelis-Menten equation for competitive inhibition: KI=KM[I]/(KM app−KM) KM approximates the dissociation constant of the enzyme-substrate complex while kcat is the rate of conversion of substrate to product when the substrate concentration is saturating. kcat/KM is a widely accepted parameter for catalytic efficiency when substrate concentration is low (˜KM). […] The parameter kcat/KM×KI is used to quantify both catalytic efficiency and insensitivity and thus the overall fitness of the enzyme. […]

[2] = molecular target: Zea mays EPSPS variant Zm-G102A (Zea mays, UniProt O24566, G101A); assay: Rapid two-rate method for (kcat/KM)*KI, Zm-G102A; conditions: [E] 0.07 uM, [Gly] 1000 uM
Sequence of Zea mays EPSPS variant Zm-G102A (O24566 entry or part of it G101A): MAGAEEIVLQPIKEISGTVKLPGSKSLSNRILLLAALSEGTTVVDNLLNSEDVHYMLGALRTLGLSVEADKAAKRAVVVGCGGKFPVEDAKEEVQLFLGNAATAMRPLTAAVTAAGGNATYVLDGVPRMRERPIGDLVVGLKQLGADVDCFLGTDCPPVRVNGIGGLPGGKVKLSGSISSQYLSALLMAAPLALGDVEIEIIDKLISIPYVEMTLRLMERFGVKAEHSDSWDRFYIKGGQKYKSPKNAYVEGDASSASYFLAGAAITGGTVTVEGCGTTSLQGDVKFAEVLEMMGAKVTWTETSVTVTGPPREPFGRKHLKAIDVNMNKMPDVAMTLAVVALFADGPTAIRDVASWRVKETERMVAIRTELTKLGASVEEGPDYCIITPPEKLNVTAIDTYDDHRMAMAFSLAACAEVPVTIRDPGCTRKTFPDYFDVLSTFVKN
Description: (§1) There are several practical considerations for accurately estimating (kcat/KM)*KI with the rapid method. […] 2) The inhibitor concentration must be adjusted so as to obtain a degree of inhibition that minimally amplifies the error in the term v0-vi in Equation 3. If inhibition is too little, v0-vi will be small, and the error in the multiplier vi×v0/(v0-vi) will be large. […] 3) Substrate concentration should be set at the approximate KM of the parental variant(s), subject to the sensitivity of the assay. High substrate concentration obscures sensitivity to the inhibitor and reduces stringency for capturing improvements in KM. Depending on the necessity for speed, there exists opportunity for customizing enzyme and inhibitor concentrations. […] The rapid method was repeated for those and obtained data that correlated better with data obtained by substrate saturation analysis. For screening purposes however, that correlation step is not necessary. Conditions can be set so that variants with a pre-determined minimal fitness level are accurately quantified.
(§2) In Table 15, parameters above the heavy line for the rapid method were obtained under standard conditions. For variants shown below the heavy line, the rapid analysis was repeated with enzyme or glyphosate concentrations adjusted as needed to generate sufficient signal within the limits for linear initial rates.

[3] = molecular target: T1, Zea mays EPSPS variant Zm-H6 (868-H6) with V87T (H6-V87T) (Zea mays, UniProt O24566, A1R/A3W/A415G/A71Q/D401G/E301S/E390G/G101A/I207L/K83R/L97C/T278A/T360S/T440Q/V437R/V86T); assay: Rapid two-rate method for (kcat/KM)*KI, H6-V87T; conditions: [E] 0.07 uM, [Gly] 1000 uM
T1 construct: 868-H6 plus V87T; E. coli BL21(DE3), Ni-NTA purified
T1 sequence (O24566 with tags, fused parts or gaps A1R/A3W/A71Q/K83R/V86T/L97C/G101A/I207L/T278A/E301S/T360S/E390G/D401G/A415G/V437R/T440Q): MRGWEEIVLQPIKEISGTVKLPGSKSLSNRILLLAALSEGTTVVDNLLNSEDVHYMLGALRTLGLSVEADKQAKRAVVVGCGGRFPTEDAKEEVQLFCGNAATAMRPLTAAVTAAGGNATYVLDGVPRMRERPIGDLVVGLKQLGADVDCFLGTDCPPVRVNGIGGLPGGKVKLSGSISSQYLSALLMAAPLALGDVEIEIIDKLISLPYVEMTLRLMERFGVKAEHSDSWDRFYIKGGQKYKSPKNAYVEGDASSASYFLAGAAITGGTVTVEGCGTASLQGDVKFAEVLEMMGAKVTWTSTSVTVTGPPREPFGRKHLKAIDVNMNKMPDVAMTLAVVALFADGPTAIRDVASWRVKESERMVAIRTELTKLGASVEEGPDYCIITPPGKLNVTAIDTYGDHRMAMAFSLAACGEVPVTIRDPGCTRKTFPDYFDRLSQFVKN
Description: as §1, §2

## O=C(O)CNCP(=O)(O)O [glyphosate, N-phosphonomethylglycine]
[1]
  Ki: 629 µM
[1]; PEP as substrate, glyphosate as inhibitor
  (kcat/KM)*KI: 10070
[2]
  (kcat/KM)*KI: 3596
[3]
  (kcat/KM)*KI: 3190

Reference: patent US11549123B2, “Plant EPSP synthases and methods of use” (PIONEER HI-BRED INTERNATIONAL, INC., priority 2015, dated 2023)
